Data taken from patent US4120895A, “S-phenenyltris (iminocarbonyl) triisophthalic acid salts” (American Cyanamid Company, priority 1977, dated 1978).
Counter-ions that a name gives are not always drawn.

Experiments:
activated human C1 = biological target: T1, activated human C1 (Homo sapiens, UniProt P09871); assay: Test, Code 026 (C1 inhibitor); assay type: biochemical
T1 construct: fluid-phase human C2 consumption in presence of C4
From the text: An active inhibitor protects C2 from C1 and C4; (ii) Test, Code 035 (C3-C9 inhibitor)-This test determines the ability of the late components of human complement (C3-C9) to lyse EAC 142 in the presence of appropriate dilutions of the test compound. An active inhibitor protects EAC 142 from lysis by human C3-C9; (iii) Test, Code 036 (C-Shunt inhibitor) - In this test human erythrocytes rendered fragile are lysed in autologous serum via the shunt pathway activated by cobra venom factor in the presence of appropriate dilutions of the test compound. Inhibition of the shunt pathway results in failure of lysis; (iv) Forssman Vasculitis Test -- Here, the well known complement dependent lesion, Forssman vasculitis, is produced in guinea pigs by intradermal injection of rabbit anti-Forssman antiserum. The lesion is measured in terms of diameter, edema and hemorrhage and the extent to which a combined index of these is inhibited by prior intraperitoneal injection of the test compound at 200 mg/kg is then reported, unless otherwise stated; (v) Forssman Shock Test -- Lethal shock is produced in guinea pigs by an i.v. injection of anti-Forssman antiserum and the harmonic mean death time of treated guinea pigs is compared with that of simultaneous controls; (vi) Complement Level Reduction Test -- In this test, the above dosed guinea pigs, or others, are bled for serum and the complement level is determined in undiluted serum by the capillary tube method of U.S. Pat. No. 3,876,376 and compared to undosed control guinea pigs; and (vii) Cap 50 Test -- Here, appropriate amounts of the test compound are added to a pool of guinea pig serum in vitro, after which the undiluted serum capillary tube assay referred to above is run. The concentration of compound inhibiting 50% is reported.

[1] = test system: Citrated sheep plasma (CSP); assay: in vitro anti-coagulant activity (AC); assay type: biochemical
Protocol: The sheep RBC's, kept in suspension throughout the clotting incubation time, become enmeshed in the fibrin matrix if a clot forms. Upon centrifugation of the plate, untrapped RBC's form buttons, the sizes of which correspond to the degree of clot inhibition; this providing a measure of anti-coagulant activity (AC). Sodium heparin is used as a positive control and activity is reported in wells appearing in Table I.

T1 sequence (P09871 16-688): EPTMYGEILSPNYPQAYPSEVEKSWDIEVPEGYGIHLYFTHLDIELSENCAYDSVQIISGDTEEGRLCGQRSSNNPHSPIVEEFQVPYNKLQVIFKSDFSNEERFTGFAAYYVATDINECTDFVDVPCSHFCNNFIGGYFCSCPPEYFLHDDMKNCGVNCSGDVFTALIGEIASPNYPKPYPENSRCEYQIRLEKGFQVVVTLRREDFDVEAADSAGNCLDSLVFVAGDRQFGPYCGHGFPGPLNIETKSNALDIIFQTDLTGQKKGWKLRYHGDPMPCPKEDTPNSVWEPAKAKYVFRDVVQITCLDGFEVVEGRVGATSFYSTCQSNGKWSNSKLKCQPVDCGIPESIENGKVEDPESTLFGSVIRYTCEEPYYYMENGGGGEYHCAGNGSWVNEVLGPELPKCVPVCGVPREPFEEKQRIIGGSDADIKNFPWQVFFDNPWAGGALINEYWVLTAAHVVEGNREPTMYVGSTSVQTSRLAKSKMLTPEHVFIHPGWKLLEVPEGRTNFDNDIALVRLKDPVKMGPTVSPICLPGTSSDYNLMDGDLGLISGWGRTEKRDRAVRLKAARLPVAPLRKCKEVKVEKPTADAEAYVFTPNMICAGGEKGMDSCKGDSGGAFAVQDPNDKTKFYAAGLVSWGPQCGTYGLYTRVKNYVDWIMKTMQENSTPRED
T1 sequence (P00736 18-705 partner): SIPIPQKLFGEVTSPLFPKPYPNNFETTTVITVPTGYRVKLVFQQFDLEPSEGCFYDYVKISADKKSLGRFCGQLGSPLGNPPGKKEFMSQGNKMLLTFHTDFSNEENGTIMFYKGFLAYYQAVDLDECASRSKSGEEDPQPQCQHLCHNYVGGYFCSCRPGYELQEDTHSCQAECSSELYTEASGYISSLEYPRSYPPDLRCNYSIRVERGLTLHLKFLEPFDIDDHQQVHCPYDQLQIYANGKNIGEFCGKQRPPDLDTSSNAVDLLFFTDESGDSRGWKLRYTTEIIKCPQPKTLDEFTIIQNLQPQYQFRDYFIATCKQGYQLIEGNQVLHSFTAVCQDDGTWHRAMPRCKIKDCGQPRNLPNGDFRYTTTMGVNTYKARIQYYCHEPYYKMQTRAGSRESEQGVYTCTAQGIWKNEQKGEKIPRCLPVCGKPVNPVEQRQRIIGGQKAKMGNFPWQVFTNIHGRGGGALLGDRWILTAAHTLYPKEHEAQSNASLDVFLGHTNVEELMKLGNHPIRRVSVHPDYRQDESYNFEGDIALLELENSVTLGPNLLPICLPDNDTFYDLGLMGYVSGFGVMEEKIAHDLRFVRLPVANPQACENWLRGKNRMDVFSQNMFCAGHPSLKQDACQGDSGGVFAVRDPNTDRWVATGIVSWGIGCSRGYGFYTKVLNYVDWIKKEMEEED
T1 sequence (P02745 23-245 partner): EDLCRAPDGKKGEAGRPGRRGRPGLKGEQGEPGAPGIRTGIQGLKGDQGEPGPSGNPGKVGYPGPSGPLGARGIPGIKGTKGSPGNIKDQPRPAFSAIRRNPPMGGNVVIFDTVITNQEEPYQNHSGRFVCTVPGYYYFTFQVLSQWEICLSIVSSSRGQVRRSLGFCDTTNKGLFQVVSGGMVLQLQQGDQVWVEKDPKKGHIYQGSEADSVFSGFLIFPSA
T1 sequence (P02746 28-253 partner): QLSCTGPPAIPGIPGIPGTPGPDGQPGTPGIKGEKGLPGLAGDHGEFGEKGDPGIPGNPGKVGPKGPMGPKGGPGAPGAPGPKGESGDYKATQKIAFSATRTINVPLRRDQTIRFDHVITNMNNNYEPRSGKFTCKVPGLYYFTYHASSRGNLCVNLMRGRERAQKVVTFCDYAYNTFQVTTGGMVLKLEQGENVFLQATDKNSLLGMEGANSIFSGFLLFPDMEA
T1 sequence (P02747 29-245 partner): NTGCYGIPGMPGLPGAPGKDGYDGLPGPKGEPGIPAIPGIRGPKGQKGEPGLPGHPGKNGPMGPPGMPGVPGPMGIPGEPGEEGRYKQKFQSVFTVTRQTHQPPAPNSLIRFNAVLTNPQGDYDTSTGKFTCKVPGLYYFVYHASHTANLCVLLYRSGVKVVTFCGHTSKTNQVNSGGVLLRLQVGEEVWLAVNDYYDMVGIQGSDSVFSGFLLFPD

Q: With `O=C(O)c1cc(C(=O)O)cc(C(=O)Nc2cc(NC(=O)c3cc(C(=O)O)cc(C(=O)O)c3)cc(NC(=O)c3cc(C(=O)O)cc(C(=O)O)c3)c2)c1` [5,5',5"-[s-Phenenyltris(iminocarbonyl)]triisophthalic acid hexasodium salt] as the molecule, how does the “Cl 026 Wells” value (activated human C1; Table I, two-fold serial dilution assay, higher well number indicates higher activity) read?
A: +3 Wells

Q: What about the “In Vitro Activity, Complement Inhibiting Activity (Wells) Code 026” value (activated human C1; Table II) of the same molecule?
A: +3 Wells

Q: And the “Logarithmic Difference Expressed as Wells” value (activated human C1; Table II, Code 026 wells minus AC wells (base 2))?
A: +5 Wells

Q: And the “AC Wells” value ([1]; Table I, clot inhibition, recalcified citrated sheep plasma with sheep RBC, serial dilutions)?
A: < -2 Wells

Q: And the “In Vitro Activity, Anti-Coagulant Activity (Wells) AC” value ([1]; Table II)?
A: -2 Wells
